# Results as given in ChEMBL document CHEMBL3351760, “Homology modeling and explicit membrane molecular dynamics simulation to delineate the mode of binding of thiazolidinediones into FFAR1 and the mechanism of receptor activation” (Bioorg Med Chem Lett, 2014).
# Target: Free fatty acid receptor 1 (Homo sapiens, UniProt O14842)
# Assay: Agonist activity at FFAR1 (unknown origin) assessed as increase in ERK1/2 MAP kinase phosphorylation
# Sequence of Free fatty acid receptor 1 (O14842 whole entry): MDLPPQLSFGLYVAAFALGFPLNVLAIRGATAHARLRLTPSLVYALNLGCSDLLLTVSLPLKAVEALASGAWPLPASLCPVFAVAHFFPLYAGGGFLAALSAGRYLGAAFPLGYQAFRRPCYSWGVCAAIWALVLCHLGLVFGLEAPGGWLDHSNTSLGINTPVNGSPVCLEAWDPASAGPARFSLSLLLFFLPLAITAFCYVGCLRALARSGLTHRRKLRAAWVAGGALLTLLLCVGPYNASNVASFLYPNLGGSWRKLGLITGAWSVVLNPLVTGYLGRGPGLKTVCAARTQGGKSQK
row,EC50 [µM],SMILES
1,813,CCc1ccc(CCOc2ccc(CC3SC(=O)NC3=O)cc2)nc1 (stereo not drawn) [PIOGLITAZONE]
2,11.5,CN(CCOc1ccc(CC2SC(=O)NC2=O)cc1)c1ccccn1 (stereo not drawn) [ROSIGLITAZONE]
3,0.316,O=C(O)CCc1ccc(NCc2cccc(Oc3ccccc3)c2)cc1 [GW9508]
